In publication PMC1097768 (Nucleic Acids Research, 2005) one finds Ki data, which are given here for 1 compound.

For this test, the target named is mNdK (nucleoside diphosphate kinase) (Mycobacterium tuberculosis, UniProt P9WJH7). In words: FRET molecular beacon nuclease assay with FP1T, Lineweaver-Burk analysis. It counts as biochemical.
Sequence of mNdK (nucleoside diphosphate kinase) (P9WJH7 whole entry): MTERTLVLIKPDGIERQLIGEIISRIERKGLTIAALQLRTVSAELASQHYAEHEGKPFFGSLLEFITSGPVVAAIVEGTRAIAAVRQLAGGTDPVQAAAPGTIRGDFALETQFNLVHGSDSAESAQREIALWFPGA

`Nc1nc2c(ncn2[C@@H]2O[C@H](COP(=O)(O)OP(=O)(O)O)[C@@H](O)[C@H]2O)c(=O)[nH]1` [GDP]: the inhibition constant Ki was around 1.9 mM.

The term Ki denotes the equilibrium dissociation constant of an inhibitor or competing ligand from its target.
